# Measured values taken from US20060067942A1, “Pharmaceutical agent comprising amino acids, peptides, proteins and/or fractions and fragments thereof and the use of same in the prophylaxis and treatment of immune system deficiency in humans and animals” (priority 2004, published 2006).
# Where “and” joins values, the source holds several entries; their conditions need not be identical. Equal values may be shown once.
# Experiments:
# T-lymphocytes = test: E-rosette test in immunosuppressed guinea pigs; type: in vivo, guinea pig
# Excerpt: Guinea pig's T-lymphocytes bind rabbits erythrocytes on their surface, this ability is used to observe the dynamics of changes in the number of T-lymphocytes. The number of the human T-lymphocytes is one of the parameters of evaluation of cellular immunity in the clinical immunology. […] The first step was to determine the number of T-lymphocytes by using the E-rosette assay in the 8 Guinea pigs in the weight range 260-310 g. The second step was to decrease the number of T-lymphocytes. This was done using the immunosuppressant Azathioprin. The application of this is per os for 7 of the guinea pigs. The 8th guinea pig will be used as a control without application of the immunosuppressant. The second determination of the T-lymphocytes followed 7 days after the application of the immunosuppressant. […] One of the suppressed guinea pigs was used as a control suppressed animal.
# The level of E-rosettes was determined on the first day from the blood of 12 experimental guinea pigs. On the second day, 8 animals (group A) were treated i.p. with oxoplatin as an anti-tumor agent and 3 animals (group B) were treated with double the dose of oxoplatin. The final guinea pig was used as a control. The level of E-rosettes was determined 5 days later.
# The level of the E-rosettes in 3 guinea pigs with low values of E-rosettes was determined again at day 35.
# The level of E-rosettes in 9 experimental guinea pigs was determined on the 1st day. On the second day 8 animals were injected with Campto and one was without application. The level of E-rosettes in all guinea pigs was determined on the 7th day of experiment. […] On day 22 of the experiment one guinea pig had E-rosette production determined. The level of E-rosettes was then determined again in all animals on day 29.
# The level of E-rosettes in 9 experimental guinea pigs was determined on the first day. On the second day, 8 guinea pigs were injected with Taxol. The level of E-rosettes was determined again on the 7th day of experimentation. […] The level of E-rosettes in all guinea pigs was determined on the 29th day.
# The level of the E-rosettes in 10 experimental guinea pigs was determined on the first day. On the second day, 9 guinea pigs were injected with Eloxatin. The level of E-rosettes were determined on the 7th day of experimentation. […] The final level of E-rosettes was then determined on the 30th day of experimentation.
# human PBMC = test: Lymphocyte proliferation in vitro (Stimulation index, Thymidine uptake); type: cell-based; conditions: PHA positive control
# Protocol: T-lymphocyte activation can be assessed directly by: • a) De novo expression or increase of activation markers such as CD69 on T lymphocytes (CD69+/CD4+ cells) after 4 hours activation • b) Measuring blastogenesis and/or proliferation of cells to phytomitogens (such as Phytohemagglutinin, PHA), common antigens or other substances evaluated 72 hours after activation • c) Antigen-induced release of cytokines (in this case the preparation-induced intra-cellular expression of IFNg in CD4+ T lymphocytes) Methods
# Heparinized venous blood from 5 healthy volunteers (women, aged 35-52 years) has been used for the performance of the following investigations:
# In vitro proliferation of PBMC from 5 healthy individuals is presented as Stimulation index in Table 2. The PHA-induced proliferation, used here as a positive control, verified good culturing conditions, as it is shown mean proliferation index 184.5±142.8 at 72 hours. As it is expected, at 6 day SI of PHA stimulation is dropping (it is a mitogen), but the cell cultures were intact.
# That is why we tested it's stimulation activity at 3 days and 6 days activation period.
# CD4+ T lymphocytes = test: Intracellular staining for IFNg and CD69 expression on CD4+ lymphocytes in whole blood; type: cell-based, human; conditions: for % CD69+ cells / % CD69+/IFNg+ cells: CD4+ lymphocytes, 0.5 ml blood + 50 μg preparation or 10 μg PHA
# Protocol: Briefly, whole peripheral blood was collected into sodium heparin. […] Addition of 10 μl Brefeldin A (Sigma, 10 μg/ml) to all tubes. Incubation for new 4 hours at 37° C., 5% CO2. Brefeldin A is an agent which arrest produced cytokine intracellular. Surface and intracellular staining for T-lymphocytes was performed according to the manufacturer rules with monoclonal antibodies against CD3, CD4, CD69 and IFNg from FastImmune CD4 Intracellular Cytokine Detection kit (BD). Red blood cells were lysed with FACS Lysing solution for 10 min. at room temperature. Permeabilization of lymphocytes was achieved using FACS Permeabilizing solution (BD) for 10 min. The activation and intracellular cytokine expression was evaluated by the staining with CD4/CD69/IGNg monoclonal antibodies
molecule,measurement,setting,value
CC(=O)O[C@H]1C(=O)[C@@]2(C)[C@H]([C@H](OC(=O)c3ccccc3)[C@]3(O)C[C@H](OC(=O)[C@H](O)[C@@H](NC(=O)c4ccccc4)c4ccccc4)C(C)=C1C3(C)C)[C@]1(OC(C)=O)CO[C@@H]1C[C@@H]2O [Taxol],decrease of production of E-rosettes after application of Taxol,"T-lymphocytes; Experiment 3, injected day 2, determined 7th day",16%
N.N.[Cl-].[Cl-].[OH-].[OH-].[Pt+4] [oxoplatin],decrease of production of E-rosettes after application of oxoplatin,"T-lymphocytes; Experiment 1, i.p., determined 5 days later",27.4%
Phytohemagglutinin [PHA],Stimulation index (PBMC proliferation),"human PBMC; Mean of donors, 3 days (72 hours)",184.5±142.8
same,Stimulation index (PBMC proliferation),"human PBMC; Mean of donors, 3 days (72 hours), listed as PHA(+)",184.33
same,Stimulation index (PBMC proliferation),"human PBMC; Mean of donors, 6 days",51.97
same,Stimulation index (PBMC proliferation),"human PBMC; donor four, 3 days",77.3
same,Stimulation index (PBMC proliferation),"human PBMC; donor four, 6 days",61.09
same,Stimulation index (PBMC proliferation),"human PBMC; donor one, 3 days",417
same,Stimulation index (PBMC proliferation),"human PBMC; donor one, 6 days",33
same,Stimulation index (PBMC proliferation),"human PBMC; donor six, 3 days",114.65
same,Stimulation index (PBMC proliferation),"human PBMC; donor six, 6 days",25.11
same,Stimulation index (PBMC proliferation),"human PBMC; donor three, 3 days",87.38
same,Stimulation index (PBMC proliferation),"human PBMC; donor three, 6 days",119.9
same,Stimulation index (PBMC proliferation),"human PBMC; donor two, 3 days",225.3
same,Stimulation index (PBMC proliferation),"human PBMC; donor two, 6 days",20.74
same,% CD69+ cells,CD4+ T lymphocytes; Mean of 6 donors,83.54%
same,% CD69+/IFNg+ cells,CD4+ T lymphocytes; Mean of 6 donors,4.97±5.75% and 4.97%
same,PHA induced % CD69+ cells,"CD4+ T lymphocytes; after 4 hours stimulation, healthy individuals",over 80%
same,% CD69+ cells,CD4+ T lymphocytes; donor five,78.46%
same,% CD69+/IFNg+ cells,CD4+ T lymphocytes; donor five,2.45%
same,% CD69+ cells,CD4+ T lymphocytes; donor four,87.87%
same,% CD69+/IFNg+ cells,CD4+ T lymphocytes; donor four,2.87%
same,% CD69+ cells,CD4+ T lymphocytes; donor one,89.58%
same,% CD69+/IFNg+ cells,CD4+ T lymphocytes; donor one,0.49%
same,% CD69+ cells,CD4+ T lymphocytes; donor six,90.03%
same,% CD69+/IFNg+ cells,CD4+ T lymphocytes; donor six,16.42%
same,% CD69+ cells,CD4+ T lymphocytes; donor three,86.39%
same,% CD69+/IFNg+ cells,CD4+ T lymphocytes; donor three,4.39%
same,% CD69+ cells,CD4+ T lymphocytes; donor two,68.91%
same,% CD69+/IFNg+ cells,CD4+ T lymphocytes; donor two,3.18%
O=C1[O][Pt]2([NH][C@@H]3CCCC[C@H]3[NH]2)[O]C1=O [Eloxatin],decrease of formation of E-rosettes after application of Eloxatin,"T-lymphocytes; Experiment 4, injected day 2, determined 7th day",22%
CCc1c2c(nc3ccc(OC(=O)N4CCC(N5CCCCC5)CC4)cc13)-c1cc3c(c(=O)n1C2)COC(=O)[C@]3(O)CC [Campto],decrease of production of E-rosettes after application of Campto,"T-lymphocytes; Experiment 2, injected day 2, determined 7th day",22.7%
